Earlier results, collected in publication PMC9697394, “Recent Synthesis, Characterization, and Pharmacological Evaluation of Multifunctional Hemorphins Containing Non-Natural Amino Acids with Potential Biological Importance” (Pharmaceuticals, 2022).
Where two headings read alike, the source gives them in different places. Where no end group is shown, it is not given here. [ ]: non-standard residue; d: D form. Ac6c = NC1(C(=O)O)CCCCC1; Orn = NCCC[C@H](N)C(=O)O; Ac5c = NC1(C(=O)O)CCCC1; Dab = NCC[C@H](N)C(=O)O; Dap = NC[C@H](N)C(=O)O; Aib = CC(C)(N)C(=O)O; Sar = CNCC(=O)O

Columns and labels:
mice [1] = conditions: rotarod
mice [2] = conditions: MES test in mice
mice [3] = conditions: 6 Hz test in mice, TPE 10 min
From the text: Modifications have been made by replacing Pro at position 2 with the unnatural and conformationally restricted amino acids Ac5c and Ac6c, as well as introducing the adamantane residue from the N-terminus of the hemorphin-4 molecule that would lead to multiple target systems.

[4] = by potentiometric titration
From the text: Table 6 Parameters of the voltammetric measurements and the electrochemical data of peptides. | column: pKa1; pKa2 Constants

[5] = for isoelectric point (pI): Figure 6; for charge at pH 7.4 (in words): based on pKa constants and isoelectric points
From the text: The structure–activity relationship of a series of new analogs of the shortest of all hemorphins, hemorphin-4, was elucidated by Todorov et al. (compounds P4-1, P4-2, P4-3, P4-4, and P4-5). Modifications have been made by replacing Pro at position 2 with the unnatural and conformationally restricted amino acids Ac5c and Ac6c, as well as introducing the adamantane residue from the N-terminus of the hemorphin-4 molecule that would lead to multiple target systems. […] It is known that some identical amino acid residues can have different reactivity with respect to given chemical reagents. For example, in an enzyme molecule, only one or a small number of side chains of amino acid residues located in the “active” center can bind substrates or coenzymes, while others with the same chemical composition cannot. As is known, a large part of the hydro ...

rat [6] = conditions: rat blood pressure assay
From the text: Table 5 Bioactive hemorphin peptides. | column: Concentration/Dose; Effect

[7] = at the spinal level; 27.2 nmol i.t.
From the text: (§1) Table 5 Bioactive hemorphin peptides. | column: Effect

rat [8] = conditions: Barnes circular maze in rat; 100 pmol
From the text: as §1

WK rats and SHRs = conditions: radiotelemetry in WK rats and SHRs; 100 µg/kg
From the text: as §1

[9] = test system: rat locus coeruleus neurons; conditions: in vitro LC neurons; read-out: IC50, inhibition of the spontaneous firing
From the text: (§2) Table 5 Bioactive hemorphin peptides. | column: Concentration/Dose

rat mu-opioid receptor = conditions: merged cell of Table 5; read-out: IC50, binds to rat mu-opioid receptor
From the text: as §2

[10] = test system: guinea pig ileum muscle preparation; conditions: merged cell of Table 5, read-out: IC50, inhibition of the electrically induced contractions
From the text: as §2

[11] = test system: tumor (L929 and A549) cell cultures; conditions: 0.5 µM epirubicin added 24 h prior to 1 µM valorphin; 1 µM valorphin added 48 h prior to 0.1 µM epirubicin
From the text: as §1

[12] = test system: L929 and K562 tumor cells; conditions: 10^−7–10^−13 M concentration range
From the text: as §1

[13] = test system: cerebellar Purkinje cells; conditions: in vitro cerebellar Purkinje cells
From the text: as §1

mice; rat = conditions: hot plate, tail flick test in mice; Randall–Selitto test in rat
From the text: as §1

mice [14] = conditions: ivPTZ seizure test in mice; TPE 10 min; rank order, hemorphin-7 analogs containing unnatural amino acids
From the text: Moreover, this peptide analog had the lowest ...

[15] = Table 2 (MES), TPE 10 min, hemorphin-4 analogs, unit inferred
[16] = TPE 10 min, hemorphin-4 analogs
[17] = Table 2 (MES), LVV- and VV-hemorphin-7 analogs, unit inferred
[18] = TPE 10 min, LVV- and VV-hemorphin-7 analogs
[19] = Table 2 (MES), VV-hemorphin-5 analogs, unit inferred
[20] = TPE 10 min, VV-hemorphin-5 analogs
[21] = LVV- and VV-hemorphin-7 analogs
[22] = VV-hemorphin-7 analogs containing unnatural amino acids

## O=C1NC(=O)C(c2ccccc2)(c2ccccc2)N1 [Phenytoin, 5,5′-diphenylhydantoin, reference compound]
Mice [1]; TPE 60 min, Table 2, ref not given
  TD50 (median minimal neurotoxic dose): >100 mg/kg
Mice [2]; TPE 60 min, reference drug, ref not given
  ED50 (median effective dose): 4.92 mg/kg

## Aaa-Tyr-Ac5c-Trp-Thr-NH2 [P4-4]
Mice [3]; hemorphin-4 analogs
  ED50 (median effective dose): 0.44 µg
[4]
  pKa1: 6.16
  pKa2: 8.90
[5]
  isoelectric point (pI): about 7
  charge at pH 7.4 (in words): positively charged
Mice [1]; [15]
  TD50 (median minimal neurotoxic dose): > 10 mg/kg
Mice [2]; [16]
  ED50 (median effective dose): 2.33 µg

## Aaa-Tyr-Ac6c-Trp-Thr-NH2 [P4-5]
Mice [3]; hemorphin-4 analogs
  ED50 (median effective dose): 0.64 µg
[4]
  pKa1: 6.20
  pKa2: 9.06
[5]
  isoelectric point (pI): about 7
  charge at pH 7.4 (in words): positively charged
Mice [1]; [15]
  TD50 (median minimal neurotoxic dose): > 10 mg/kg
Mice [2]; [16]
  ED50 (median effective dose): 0.41 µg

## Aaa-Tyr-Pro-Trp-Thr-NH2 [P4-3]
Mice [3]; hemorphin-4 analogs
  ED50 (median effective dose): 0.83 µg
[4]
  pKa1: 3.88
  pKa2: 6.93
Mice [1]; [15]
  TD50 (median minimal neurotoxic dose): > 10 mg/kg
Mice [2]; [16]
  ED50 (median effective dose): 1.66 µg

## D-Leu-Val-Val-Tyr-Pro-Trp-Thr-Gln-Arg-D-Phe-NH2 [H7-3]
[4]
  pKa1: 3.05
  pKa2: 6.78
Mice [1]; [17]
  TD50 (median minimal neurotoxic dose): > 8 mg/kg
Mice [2]; [18]
  ED50 (median effective dose): 0.68 µg

## DGRVVYPWTQRFRGD-NH2 [RGD2]
[4]
  pKa1: 3.48
  pKa2: 6.34

## IVVYPWTQ-NH2 [V6]
Mice [3]; VV-hemorphin-5 analogs
  ED50 (median effective dose): 5.55 µg
[4]
  pKa constant (one value given): 8.01, [48, 49]
Mice [1]; [19]
  TD50 (median minimal neurotoxic dose): > 20 mg/kg
Mice [2]; [20]
  ED50 (median effective dose): 16.77 µg

## IVVYPWTQR[dF]-NH2 [H7-1]
Mice [3]; [21]
  ED50 (median effective dose): 0.33 µg
[4]
  pKa1: 2.98
  pKa2: 6.12

## IVYPWTQR[dF]-NH2 [H7-2]
Mice [3]; [21]
  ED50 (median effective dose): 2.6 µg
[4]
  pKa1: 3.09
  pKa2: 6.62
Mice [1]; [17]
  TD50 (median minimal neurotoxic dose): > 8 mg/kg
Mice [2]; [18]
  ED50 (median effective dose): 0.94 µg

## Leu-Val-Val-Tyr-Pro-Trp-Thr-Gln-Arg-Phe [LVV-hemorphin-7]
Rat [6]
  cardiovascular activity (in words): pressor and tachycardic activities mediated by the SNS
Rat [6]; pressor activity
  ED25: 128.0 nmol/kg
[7]
  effect on carrageenan-induced hyperalgesia (in words): decrease
Rat [8]
  effect on spatial learning (in words): enhanced spatial learning
WK rats and SHRs
  effect on blood pressure (in words): Reduce blood pressure

## Tyr-D-Arg-Phe-Lys-NH2 [DALDA]
[9]
  IC50: 20 nM

## Tyr-Pro-Leu-Gly-NH2 [Tyr-MIF-1]
[9]
  IC50: 37500 nM

## Tyr-Pro-Phe-Phe-NH2 [endomorphin-2]
[9]
  IC50: 5.3 nM

## Tyr-Pro-Phe-Pro-NH2 [morphiceptin]
[9]
  IC50: 65 nM

## Tyr-Pro-Trp-Gly-NH2 [Tyr-W-MIF-I]
[9]
  IC50: 3800 nM

## Tyr-Pro-Trp-Phe-NH2 [endomorphin-1]
[9]
  IC50: 8.8 nM

## Tyr-Pro-Trp-Thr [hemorphin-4]
[9]
  IC50: 6700 nM

## VVYPWTK-NH2 [V5]
Mice [3]; VV-hemorphin-5 analogs
  ED50 (median effective dose): 9.89 µg
[4]
  pKa constant (one value given): 8.24, [48, 49]
Mice [1]; [19]
  TD50 (median minimal neurotoxic dose): > 20 mg/kg
Mice [2]; [20]
  ED50 (median effective dose): 3.19 µg

## VVYPWTQ [Valorphin]
Rat mu-opioid receptor
  IC50: 14 nM
[10]
  IC50: 10000 nM
[11]
  cell death: 100%
[12]
  effect on tumor cells (in words): Tumor cell cytolysis
[13]
  effect on spontaneous firing (in words): inhibition of the spontaneous firing
mice; rat
  analgesic effect (in words): opioid analgesic activity

## VVYPWTQRFRGD-NH2 [RGD1]
[4]
  pKa1: 3.53
  pKa2: 6.42

## VVYPWT[Dab]-NH2 [V3]
[4]
  pKa constant (one value given): 8.12, [48, 49]

## VVYPWT[Dab]RF-NH2 [VV-H-5]
Mice [3]; [22]
  ED50 (median effective dose): 0.89 µg
[4]
  pKa (Dap, Dab): 7.21
  pKa (Tyr): 5.98
  pKa (Val): 8.08

## VVYPWT[Dap]-NH2 [V2]
Mice [3]; VV-hemorphin-5 analogs
  ED50 (median effective dose): 9.97 µg
[4]
  pKa constant (one value given): 9.23, [48, 49]

## VVYPWT[Dap]RF-NH2 [VV-H-4]
Mice [14]
  Comparison of Activity Related to the Threshold Dose (µg/10 µL) for Clonic Seizures: VV–H7 = V–H4
Mice [3]; [22]
  ED50 (median effective dose): 3.83 µg
[4]
  pKa (Dap, Dab): 5.46
  pKa (Tyr): 3.14
  pKa (Val): 7.10

## VVYPWT[Orn]-NH2 [V4]
Mice [3]; VV-hemorphin-5 analogs
  ED50 (median effective dose): 5.09 µg
[4]
  pKa constant (one value given): 7.83, [48, 49]
Mice [1]; [19]
  TD50 (median minimal neurotoxic dose): > 20 mg/kg
Mice [2]; [20]
  ED50 (median effective dose): 3.63 µg

## VVY[Ac5c]WTQRF-NH2 [VV-H-2]
Mice [3]; [22]
  ED50 (median effective dose): 5.69 µg
[4]
  pKa (Tyr): 5.34
  pKa (Val): 8.04

## VVY[Ac5c]WT[Dab]RF-NH2 [VV-H-7]
Mice [3]; [22]
  ED50 (median effective dose): 0.89 µg
[4]
  pKa (Dap, Dab): 7.26
  pKa (Tyr): 4.70
  pKa (Val): 8.21

## VVY[Ac5c]WT[Dap]RF-NH2 [VV-H-6]
[4]
  pKa (Dap, Dab): 6.87
  pKa (Tyr): 4.72
  pKa (Val): 8.15

## VVY[Ac6c]WTQRF-NH2 [VV-H-3]
Mice [3]; [22]
  ED50 (median effective dose): 5.69 µg
[4]
  pKa (Tyr): 4.83
  pKa (Val): 7.49

## VVY[Ac6c]WT[Dab]RF-NH2 [VV-H-9]
Mice [3]; [22]
  ED50 (median effective dose): 1.09 µg
[4]
  pKa (Dap, Dab): 8.80
  pKa (Tyr): 4.66
  pKa (Val): 9.08

## VVY[Ac6c]WT[Dap]RF-NH2 [VV-H-8]
Mice [3]; [22]
  ED50 (median effective dose): 1.01 µg
[4]
  pKa (Dap, Dab): 8.03
  pKa (Tyr): 5.27
  pKa (Val): 9.20

## Y[Ac5c]WT-NH2 [P4-1]
Mice [3]; hemorphin-4 analogs
  ED50 (median effective dose): 0.52 µg
[4]
  pKa1: 3.89
  pKa2: 6.52

## Y[Ac6c]WT-NH2 [P4-2]
Mice [3]; hemorphin-4 analogs
  ED50 (median effective dose): 2.16 µg
[4]
  pKa1: 3.93
  pKa2: 6.71
Mice [1]; [15]
  TD50 (median minimal neurotoxic dose): > 10 mg/kg
Mice [2]; [16]
  ED50 (median effective dose): 2.33 µg

## Y[dR]F[Sar] [TAPS]
[9]
  IC50: 1.9 nM

## [Aib]VVYPWTQ-NH2 [V7]
Mice [3]; VV-hemorphin-5 analogs
  ED50 (median effective dose): 6.61 µg
[4]
  pKa constant (one value given): 8.17, [48, 49]
Mice [1]; [19]
  TD50 (median minimal neurotoxic dose): > 20 mg/kg
Mice [2]; [20]
  ED50 (median effective dose): 16.55 µg

## [dV]VYPWTQR[dF]-NH2 [H7-4]
[4]
  pKa1: 3.22
  pKa2: 6.52
Mice [1]; [17]
  TD50 (median minimal neurotoxic dose): > 15 mg/kg
Mice [2]; [18]
  ED50 (median effective dose): 2.54 µg

## rhodamineB-Gly-Tyr-Pro-Trp-Thr-NH2 [Rh-1]
[4]
  pKa1: 2.81
  pKa2: 6.60

## rhodamineB-β-Ala-Tyr-Pro-Trp- Thr-NH2 [Rh-2]
[4]
  pKa1: 2.78
  pKa2: 6.38

## rhodamineB-γ-Abu-Tyr-Pro-Trp-Thr-NH2 [Rh-3]
[4]
  pKa1: 2.86
  pKa2: 6.39
